According to patent US12390426B1, “Use of adamantane compositions and methods of reducing fibrotic tissue” (Ventoux Biosciences, Inc., priority 2024, dated 2025):
Structures can show the parent of a compound that is named as a salt.

Columns and labels:
[1] = Stability of the formulated dosing solutions; format: physicochemical; conditions: 0.4 mg/ml in saline; room temperature
Method: (§1) Bleomycin from Henry Schein (Cat #: 8700001) was obtained as a lyophilized powder. Unformulated Bleomycin was stored at 4° C. Formulated Bleomycin was prepared by mixing the lyophilized Bleomycin powder with saline to obtain a 0.4 mg/ml solution. Unused unformulated Bleomycin was retained. The prepared Bleomycin solution was aliquoted into 50 μL, 0.4 mg/ml Bleomycin parts and stored at −80° C. Bleomycin was prepared once and daily aliquots were frozen. Frozen aliquots were thawed daily for administration. […] Bleomycin was administered once daily on days 0-27 at 20 μg per subcutaneous injection. Unused formulated Bleomycin was disposed.
Memantine HCl from Selleckchem (Cat #: S2043) was obtained. Unformulated Memantine HCl was stored at −20° C. Memantine was formulated daily by the following procedure: dissolve memantine in a 50/50 mixture of Kolliphor® EL (Sigma, Cat #: C5135)/ethanol for a 4× concentration of 12 mg/ml. Once dissolved, 3 parts MilliQ water is added for a final concentration of 3 mg/ml for dosing (12.5% Kolliphor® EL, 12.5% ethanol, 75% water). Unused unformulated Memantine was disposed. Memantine was formulated daily and administered by intraperitoneal injection once daily on days 0-27 at 15 mg/kg; 0.1 mL/20 g (5 mL/kg). […] Unused formulated Memantine was disposed.

Alzheimer's disease = conditions: cited from earlier work
long term potentiation = conditions: animal models; cited from earlier work
[2] = system: Bleomycin-Induced Dermal Fibrosis; experiment: Bleomycin-induced dermal fibrosis animal model; format: in vivo, C57Bl/6 Mice; conditions: 15 mg/kg intraperitoneal once daily days 0-27; bleomycin 20 μg s.c. daily; stated in words only, figure values not given
From the text: Animal Model Designed to Determine Efficacy of Memantine for the Treatment of Bleomycin-Induced Dermal Fibrosis
Forty-two normal male C57Bl/6 Mice were obtained from Charles River Laboratories. Mice age at the start of the study were from 6-8 weeks old. Study subjects were allocated as follows: 1 group of 6 mice and 3 groups of 12 mice each. Animals were not replaced during the study.
as §1
Memantine HCl from Selleckchem (Cat #: S2043) was obtained. Unformulated Memantine HCl was stored at −20° C. […]
Animals were dosed with test articles, administered at least 60 minutes prior to Bleomycin or saline injections. All animals were weighed and evaluated daily. […]

| Molecule | stability of formulated Bleomycin [1] | cognitive, functional and global endpoints (Alzheimer's disease; three randomized placebo-controlled trials, Alzheimer's disease) | tolerability (Alzheimer's disease; used in Germany for neurological syndromes and cognitive deficits since 1982) | duration of long term potentiation in vivo (long term potentiation) | learning and memory (long term potentiation) | efficacy at treating fibromatosis conditions [2] |
| --- | --- | --- | --- | --- | --- | --- |
| Bleomycin | stable for a few hours at room temperature | – | – | – | – | – |
| CC12CC3CC(C)(C1)CC(N)(C3)C2 [Memantine, Memantine HCl] | – | significant improvements | good tolerability | prolong the duration of long term potentiation in vivo | improve learning and memory | Effective at Treating Fibromatosis Conditions |
